Where a name gives a salt, the structure may show the parent alone.
Experiments:
[1] = tested on: ddY male mice, KCN-induced anoxia; test: Activity on KCN-induced anoxia in mice; format: in vivo, mouse; details: for Number of Survived Mice/Total Mice / Survival Time: KCN 2.5 mg/kg i.v.; for Brain protection activity (in words): Table 5
[2] = tested on: unanesthetized spontaneously hypertensive rats; test: Heart rate determined simultaneously with blood pressure (sphygmometer connected to the pulse output); format: in vivo, rat; details: 10 mg/kg oral
Method: (§1) The anti-hypertensive activity of the compounds was determined by the tail cuff method using unanesthetized spontaneously hypertensive rats weighing 300 to 350 g (21 to 25 week old). In this experiment, the systolic blood pressure was determined by the bloodless method using a hemodynamometer. The heart rate was determined simultaneously using a sphygmometer connected to the pulse output. After rats were placed under condition of 40° C. for 10 minutes, the blood pressure was determined by holding the rats in a holder. The test compounds were suspended in a 0.5 wt% aqueous gum arabic. Hydralazine hydrochloride used as a comparative agent was administered as an aqueous solution thereof. The volume of oral administration was 0.5 ml per 100 g of body weight.

[3] = tested on: unanesthetized spontaneously hypertensive rats; test: Anti-hypertensive activity, systolic blood pressure, tail cuff method; format: in vivo, rat; details: 10 mg/kg oral
Method: as §1

[4] = tested on: Donryu male rats, indomethacin ulcer; test: Anti-ulcer activity, indomethacin-induced ulcer; format: in vivo, rat; details: for Ulcer Index Inhibition / Ulcer Index: 100 mg/kg oral, indomethacin 25 mg/kg; for Ulcer Index: **p < 0.01; for Anti-ulcer activity (in words): Table 4
Method: The test compound was administered orally to Donryu male rats weighing 240 to 300 g (7 rats per group) which have been fasting for 24 hours before testing, and, after 30 minutes, indomethacin was administered orally to the rats at a dose of 25 mg/kg. The rats were then maintained for 7 hours without feeding water and foods and then sacrificed. The stomach was extracted and fixed by infusing 7.5 ml of a 2% formalin solution into the stomach. The stomach was incised along the greater curvature thereof, and length (mm) of each ulcer generated in gastric glands was determined. The total length of the ulcer per rat was expressed in terms of an ulcer index.
In this experiment, the test compound was suspended in a 0.5% aqueous gum arabic and administered at a volume of 5 ml/kg. Indomethacin (manufacturedby Sigma Co., Ltd.) was administered as a 0.5 wt% aqueous suspension in sodium carboxymethyl cellulose at a volume of 5 ml/kg. As a control, a 0.5 wt% suspension of aqueous gum arabic was orally administered at a volume of 5 ml/kg.

[5] = tested on: Rats, pylorus portion ligated (gastric secretion); test: Gastric secretion inhibitory activity in pylorus-ligated rats; format: in vivo, rat
Method: Rats weighing 200 to 250 g (8 rats per group) which have been fasting for 24 hours before testing were subjected to abdominal section under ether anesthesia, and the pylorus portion was ligated. Immediately after ligation, the test compound was administered into the duodenum as a suspension in a 5 wt% aqueous gum arabic at a volume of 2 ml/kg. The rats were sacrificed after 6 hours, and the stomach was extracted. The gastric juice was collected to determine the volume thereof, and the acidity of the gastic juice was titrated to a pH 7.0 with a 0.02N aqueous sodium hydroxide solution using a pH meter. The acid secretion amount per 6 hours (μEq/6 h) was calculated by (volume of gastric juice×acidity of gastric juice).

[6] = 10 mg/kg into the duodenum, 6 hours
[7] = 10 mg/kg into the duodenum, 6 hours, *p < 0.05
[8] = 100 mg/kg into the duodenum, 6 hours

CC(C)(CO)[C@@H](O)C(=O)NCCCC(=O)O [Calsium Hopantenate]
Number of Survived Mice/Total Mice ([1]; 500 mg/kg i.p.): 0/9
Survival Time ([1]; 500 mg/kg i.p.): 43.8 ± 2.5 s
Brain protection activity (in words) [1]: did not show any significant activity

CN1C[C@H](Cn2cccn2)C[C@@H]2c3cccc4[nH]cc(c34)C[C@H]21 [Example 4, 1-(6-Methylergolin-8β-ylmethyl)pyrazole]
Changes in Heart Rate ([2]; 1 hr after administration): -16 Δ/min.
Changes in Heart Rate ([2]; 2 hrs after administration): -38 Δ/min.
Changes in Heart Rate ([2]; 4 hrs after administration): -52 Δ/min.
Changes in Heart Rate ([2]; 6 hrs after administration): -41 Δ/min.
Changes in Heart Rate ([2]; 24 hrs after administration): -7 Δ/min.
Changes in Systolic Blood Pressure ([3]; 1 hr after administration): -37 Δ mmHg
Changes in Systolic Blood Pressure ([3]; 2 hrs after administration): -51 Δ mmHg
Changes in Systolic Blood Pressure ([3]; 4 hrs after administration): -58 Δ mmHg
Changes in Systolic Blood Pressure ([3]; 6 hrs after administration): -49 Δ mmHg
Changes in Systolic Blood Pressure ([3]; 24 hrs after administration): -15 Δ mmHg

CCCc1nccn1C[C@@H]1C[C@@H]2c3cccc4[nH]cc(c34)C[C@H]2N(C)C1 [Example 12, 1-(6-Methylergolin-8β-ylmethyl)-2-propylimidazole]
Changes in Heart Rate ([2]; 1 hr after administration): -25 Δ/min.
Changes in Heart Rate ([2]; 2 hrs after administration): -7 Δ/min.
Changes in Heart Rate ([2]; 4 hrs after administration): -8 Δ/min.
Changes in Heart Rate ([2]; 6 hrs after administration): -5 Δ/min.
Changes in Systolic Blood Pressure ([3]; 1 hr after administration): -69 Δ mmHg
Changes in Systolic Blood Pressure ([3]; 2 hrs after administration): -59 Δ mmHg
Changes in Systolic Blood Pressure ([3]; 4 hrs after administration): -63 Δ mmHg
Changes in Systolic Blood Pressure ([3]; 6 hrs after administration): -59 Δ mmHg

CCc1nccn1C[C@@H]1C[C@@H]2c3cccc4[nH]cc(c34)C[C@H]2N(C)C1 [Example 10, 2-Ethyl-1-(6-methylergolin-8β-ylmethyl)imidazole]
Changes in Heart Rate ([2]; 1 hr after administration): 2 Δ/min.
Changes in Heart Rate ([2]; 2 hrs after administration): -15 Δ/min.
Changes in Heart Rate ([2]; 4 hrs after administration): -6 Δ/min.
Changes in Heart Rate ([2]; 6 hrs after administration): -11 Δ/min.
Changes in Systolic Blood Pressure ([3]; 1 hr after administration): -69 Δ mmHg
Changes in Systolic Blood Pressure ([3]; 2 hrs after administration): -64 Δ mmHg
Changes in Systolic Blood Pressure ([3]; 4 hrs after administration): -68 Δ mmHg
Changes in Systolic Blood Pressure ([3]; 6 hrs after administration): -66 Δ mmHg

CC(C)c1nccn1C[C@@H]1C[C@@H]2c3cccc4[nH]cc(c34)C[C@H]2N(C)C1 [Example 11, 2-Isopropyl-1-(6-methylergolin-8β-ylmethyl)imidazole]
Changes in Heart Rate ([2]; 1 hr after administration): -37 Δ/min.
Changes in Heart Rate ([2]; 2 hrs after administration): -21 Δ/min.
Changes in Heart Rate ([2]; 4 hrs after administration): -24 Δ/min.
Changes in Heart Rate ([2]; 6 hrs after administration): -46 Δ/min.
Changes in Systolic Blood Pressure ([3]; 1 hr after administration): -53 Δ mmHg
Changes in Systolic Blood Pressure ([3]; 2 hrs after administration): -56 Δ mmHg
Changes in Systolic Blood Pressure ([3]; 4 hrs after administration): -54 Δ mmHg
Changes in Systolic Blood Pressure ([3]; 6 hrs after administration): -58 Δ mmHg

NC[C@H]1CC[C@H](C(=O)Oc2ccc(CCC(=O)O)cc2)CC1 [Cetraxate, p-hydroxyhydrocinnamic acid trans-(4-aminomethyl)cyclohexane carboxylate]
Ulcer Index Inhibition [4]: 14.9%
Ulcer Index [4]: 52.1 ± 8.7 mm
Anti-ulcer activity (in words) [4]: did not show any significant anti-ulcer activity

CN1CC(=O)N(C[C@@H]2C[C@@H]3c4cccc5[nH]cc(c45)C[C@H]3N(C)C2)C1=O [Example 3, 1-Methyl-3-(6-methylergolin-8β-ylmethyl)imidazolidin-2,4-dione]
Changes in Heart Rate ([2]; 1 hr after administration): 26 Δ/min.
Changes in Heart Rate ([2]; 2 hrs after administration): 1 Δ/min.
Changes in Heart Rate ([2]; 4 hrs after administration): 2 Δ/min.
Changes in Heart Rate ([2]; 6 hrs after administration): -4 Δ/min.
Changes in Heart Rate ([2]; 24 hrs after administration): 1 Δ/min.
Volume of Acid Secreted, Inhibition [5, 6]: 52.9%
Volume of Gastric Juice, Inhibition [5, 6]: 48.4%
Total Acidity [5, 7]: 70.0 ± 5.3 mEq/liter
pH of gastric juice [5, 7]: 2.07 ± 0.22
Acid output per 6 h ([5]; 10 mg/kg into the duodenum, *p < 0.05): 198.7 ± 34.3 μEq/6 h
Changes in Systolic Blood Pressure ([3]; 1 hr after administration): -57 Δ mmHg
Changes in Systolic Blood Pressure ([3]; 2 hrs after administration): -66 Δ mmHg
Changes in Systolic Blood Pressure ([3]; 4 hrs after administration): -31 Δ mmHg
Changes in Systolic Blood Pressure ([3]; 6 hrs after administration): -27 Δ mmHg
Changes in Systolic Blood Pressure ([3]; 24 hrs after administration): -4 Δ mmHg
Survival Time ([1]; 10 mg/kg i.p., **p < 0.01, ***p < 0.001, survivors counted as 180 sec): 101.6 ± 17.8 s
Number of Survived Mice/Total Mice ([1]; 10 mg/kg i.p., survived longer than 3 minutes): 2/8

Cc1nccn1C[C@@H]1C[C@@H]2c3cccc4[nH]cc(c34)C[C@H]2N(C)C1 [Example 9, 2-Methyl-1-(6-methylergolin-8β-ylmethyl)imidazole]
Changes in Heart Rate ([2]; 1 hr after administration): -12 Δ/min.
Changes in Heart Rate ([2]; 2 hrs after administration): -27 Δ/min.
Changes in Heart Rate ([2]; 4 hrs after administration): -36 Δ/min.
Changes in Heart Rate ([2]; 6 hrs after administration): -32 Δ/min.
Changes in Heart Rate ([2]; 24 hrs after administration): -3 Δ/min.
Changes in Systolic Blood Pressure ([3]; 1 hr after administration): -50 Δ mmHg
Changes in Systolic Blood Pressure ([3]; 2 hrs after administration): -59 Δ mmHg
Changes in Systolic Blood Pressure ([3]; 4 hrs after administration): -60 Δ mmHg
Changes in Systolic Blood Pressure ([3]; 6 hrs after administration): -55 Δ mmHg
Changes in Systolic Blood Pressure ([3]; 24 hrs after administration): -9 Δ mmHg

CN(C)CCOC(=O)COc1ccc(Cl)cc1 [Meclofenoxate Hydrochloride]
Number of Survived Mice/Total Mice ([1]; 200 mg/kg i.p.): 0/6
Survival Time ([1]; 200 mg/kg i.p.): 47.7 ± 4.4 s
Brain protection activity (in words) [1]: did not show any significant activity

CN1C[C@H](CN2C(=O)CCC2=O)C[C@@H]2c3cccc4[nH]cc(c34)C[C@H]21 [Example 8, N-(6-methylergolin-8β-ylmethyl)succinimide]
Changes in Heart Rate ([2]; 1 hr after administration): 6 Δ/min.
Changes in Heart Rate ([2]; 2 hrs after administration): 3 Δ/min.
Changes in Heart Rate ([2]; 4 hrs after administration): -32 Δ/min.
Changes in Heart Rate ([2]; 6 hrs after administration): -40 Δ/min.
Changes in Systolic Blood Pressure ([3]; 1 hr after administration): -64 Δ mmHg
Changes in Systolic Blood Pressure ([3]; 2 hrs after administration): -77 Δ mmHg
Changes in Systolic Blood Pressure ([3]; 4 hrs after administration): -59 Δ mmHg
Changes in Systolic Blood Pressure ([3]; 6 hrs after administration): -66 Δ mmHg

CCOC(=O)c1ncn(C[C@@H]2C[C@@H]3c4cccc5[nH]cc(c45)C[C@H]3N(C)C2)c1C [Example 15B, ethyl 5-methyl-1-(6-methylergolin-8β-ylmethyl)-4-imidazolecarboxylate]
Changes in Heart Rate ([2]; 1 hr after administration): -4 Δ/min.
Changes in Heart Rate ([2]; 2 hrs after administration): 5 Δ/min.
Changes in Heart Rate ([2]; 4 hrs after administration): -8 Δ/min.
Changes in Heart Rate ([2]; 6 hrs after administration): -11 Δ/min.
Changes in Systolic Blood Pressure ([3]; 2 hrs after administration): -49 Δ mmHg
Changes in Systolic Blood Pressure ([3]; 4 hrs after administration): -59 Δ mmHg
Changes in Systolic Blood Pressure ([3]; 6 hrs after administration): -59 Δ mmHg

CN=C(NC#N)NCCSCc1nc[nH]c1C [Cimetidine, 1-cyano-2-methyl-3-[2-[[(5-methylimidazole-4-yl)methyl]thio]ethyl]guanidine, reference compound]
Ulcer Index Inhibition [4]: 53.7%
Ulcer Index [4]: 28.3 ± 8.4 mm
Volume of Acid Secreted ([5]; 100 mg/kg into the duodenum): 142.5 ± 60.5 μEq/6 h
Volume of Acid Secreted, Inhibition [5, 8]: 66.2%
Volume of Gastric Juice, Inhibition [5, 8]: 60.2%

CN1C[C@H](Cn2ccnc2-c2ccccc2)C[C@@H]2c3cccc4[nH]cc(c34)C[C@H]21 [Example 13, 1-(6-Methylergolin-8β-ylmethyl)-2-phenylimidazole]
Changes in Heart Rate ([2]; 1 hr after administration): -46 Δ/min.
Changes in Heart Rate ([2]; 2 hrs after administration): -49 Δ/min.
Changes in Heart Rate ([2]; 4 hrs after administration): -49 Δ/min.
Changes in Systolic Blood Pressure ([3]; 1 hr after administration): -52 Δ mmHg
Changes in Systolic Blood Pressure ([3]; 2 hrs after administration): -46 Δ mmHg
Changes in Systolic Blood Pressure ([3]; 4 hrs after administration): -54 Δ mmHg
Changes in Systolic Blood Pressure ([3]; 6 hrs after administration): -48 Δ mmHg

CN1C[C@H](Cn2ccnc2)C[C@@H]2c3cccc4[nH]cc(c34)C[C@H]21 [Example 1, 1-(6-Methylergolin-8β-ylmethyl)imidazole]
Changes in Heart Rate ([2]; 1 hr after administration): -39 Δ/min.
Changes in Heart Rate ([2]; 2 hrs after administration): -56 Δ/min.
Changes in Heart Rate ([2]; 4 hrs after administration): -25 Δ/min.
Changes in Heart Rate ([2]; 6 hrs after administration): -58 Δ/min.
Changes in Heart Rate ([2]; 24 hrs after administration): -44 Δ/min.
Volume of Acid Secreted, Inhibition [5, 6]: 73.3%
Volume of Gastric Juice, Inhibition [5, 6]: 67.8%
Total Acidity [5, 7]: 62.9 ± 3.8 mEq/liter
Changes in Systolic Blood Pressure ([3]; 1 hr after administration): -78 Δ mmHg
Changes in Systolic Blood Pressure ([3]; 2 hrs after administration): -49 Δ mmHg
Changes in Systolic Blood Pressure ([3]; 4 hrs after administration): -48 Δ mmHg
Changes in Systolic Blood Pressure ([3]; 6 hrs after administration): -60 Δ mmHg
Changes in Systolic Blood Pressure ([3]; 24 hrs after administration): -14 Δ mmHg

CC(C)=CCOc1ccc(/C=C/C(=O)c2ccc(OCC=C(C)C)cc2OCC(=O)O)cc1 [Sofalcone]
Ulcer Index Inhibition [4]: 3.4%
Ulcer Index [4]: 59.2 ± 10.5 mm
Anti-ulcer activity (in words) [4]: did not show any significant anti-ulcer activity

— patent publication US4713457A, “Ergoline derivatives and acid addition salts thereof” (priority 1985, dated 1987)
